Consider 30 compounds from patent US20230167073A1 (Teijin Pharma Limited, priority 2020, published 2023).

This assay has as its target T1, Human TRPC6 (Homo sapiens, UniProt Q9Y210).
T1 construct: expressed in transfected cells
T1 sequence (Q9Y210 1-931): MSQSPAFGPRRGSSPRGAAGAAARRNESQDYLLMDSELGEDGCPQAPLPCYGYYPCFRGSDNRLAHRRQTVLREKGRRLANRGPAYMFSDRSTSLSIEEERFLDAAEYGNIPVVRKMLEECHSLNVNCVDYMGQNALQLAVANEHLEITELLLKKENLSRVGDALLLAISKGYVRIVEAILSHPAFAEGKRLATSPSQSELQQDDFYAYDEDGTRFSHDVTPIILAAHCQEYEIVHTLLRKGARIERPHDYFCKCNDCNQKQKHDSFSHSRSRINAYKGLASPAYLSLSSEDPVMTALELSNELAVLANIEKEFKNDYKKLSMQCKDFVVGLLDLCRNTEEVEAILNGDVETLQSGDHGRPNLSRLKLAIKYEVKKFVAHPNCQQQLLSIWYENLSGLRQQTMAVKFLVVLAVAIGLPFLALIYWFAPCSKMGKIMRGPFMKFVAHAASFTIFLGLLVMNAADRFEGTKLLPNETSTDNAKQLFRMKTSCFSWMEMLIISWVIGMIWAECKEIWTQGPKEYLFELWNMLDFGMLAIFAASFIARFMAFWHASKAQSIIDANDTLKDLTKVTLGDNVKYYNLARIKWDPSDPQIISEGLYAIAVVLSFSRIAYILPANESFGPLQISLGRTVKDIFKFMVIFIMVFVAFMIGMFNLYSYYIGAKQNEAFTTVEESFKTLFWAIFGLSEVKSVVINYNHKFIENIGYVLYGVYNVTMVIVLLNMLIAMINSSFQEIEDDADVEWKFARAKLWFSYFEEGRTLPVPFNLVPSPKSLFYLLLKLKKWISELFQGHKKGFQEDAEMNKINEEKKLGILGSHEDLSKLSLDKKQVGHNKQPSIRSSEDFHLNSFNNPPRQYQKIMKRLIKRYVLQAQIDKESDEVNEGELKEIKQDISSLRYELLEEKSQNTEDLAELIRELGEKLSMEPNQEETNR
The experiment in a line: Evaluation of TRPC6 channel inhibitory activity (1), FLIPR Calcium 5 Assay Kit, OAG stimulation (Compound Nos. 1-1293). The assay is classed as cell-based. To be noted: Human TRPC6 stably-expressing cells, OAG 30 μM, FLIPR Calcium 5 Assay Kit; read-out: Inhibitory activity (pIC50 class) (converted). The procedure, abridged: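 TRPC6 (human) stable cells, 24 h culture; Ca5 no-wash dye + probenecid 30 min; cpd 20 min; OAG 30 μM final; ΔF (pre-cpd min to post-OAG max); 0%/100% = no cpd / no cpd + no OAG; 4PL → pIC50, binned +/++/+++.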
For `Cc1cc(Oc2cc(C#N)ccc2-c2ncc(CCN)cn2)cc(N2CCOC[C@@H]2C)n1` [compound 471, 4-[5-(2-aminoethyl)pyrimidin-2-yl]-3-[2-methyl-6-[(3S)-3-methylmorpholin-4-yl]pyridin-4-yl]oxybenzonitrile], the IC50 was less than 10 nM. Under `Cc1nc(Oc2cc(C#N)ccc2-c2ccc(C3CCNC3)cc2)cc(N2CCOCC2)n1` (stereo not drawn) [Compound 53, 3-(2-methyl-6-morpholin-4-ylpyrimidin-4-yl)oxy-4-(4-pyrrolidin-3-ylphenyl)benzonitrile] stands 10 to 1000 nM. Under `Cc1cc(Oc2cc(C#N)ccc2-c2ccc(C(O)C(C)(C)N)cn2)cc(N2CCOCC2)n1` (stereo not drawn) [compound 303, 4-[5-(2-amino-1-hydroxy-2-methylpropyl)pyridin-2-yl]-3-(2-methyl-6-morpholin-4-ylpyridin-4-yl)oxybenzonitrile] stands 10 to 1000 nM; under `Cc1nc(Oc2cc(C#N)ccc2-c2ncc(CN)cn2)cc(-c2ccccn2)n1` [compound 472, 4-[5-(aminomethyl)pyrimidin-2-yl]-3-(2-methyl-6-pyridin-2-ylpyrimidin-4-yl)oxybenzonitrile], 10 to 1000 nM; under `NCc1cnc(-c2ccc(F)cc2C(=O)c2cnn(CC(F)F)c2)nc1` [compound 1099, [2-[5-(aminomethyl)pyrimidin-2-yl]-5-fluorophenyl]-[1-(2,2-difluoroethyl)pyrazol-4-yl]methanone], greater than 1000 nM. Turning to `Cc1cc(Oc2cc(C#N)ccc2-c2ccc(CCN)cn2)cc(N2CCNC(=O)C2)n1` [compound 456, 4-[5-(2-aminoethyl)pyridin-2-yl]-3-[2-methyl-6-(3-oxopiperazin-1-yl)pyridin-4-yl]oxybenzonitrile], the IC50 is greater than 1000 nM.

Take `Cn1nc(N2CCCC2)cc1Cc1cc(C#N)ccc1-c1ncc(CN)cn1` [compound 1210, 4-[5-(aminomethyl)pyrimidin-2-yl]-3-[(2-methyl-5-pyrrolidin-1-ylpyrazol-3-yl)methyl]benzonitrile]: the IC50 is less than 10 nM. As to `Cn1nc(-c2ccccc2)cc1Oc1cc(C#N)ncc1-c1ccc(CN)cn1` [compound 1278, 5-[5-(aminomethyl)pyridin-2-yl]-4-(2-methyl-5-phenylpyrazol-3-yl)oxypyridine-2-carbonitrile], the IC50 was 10 to 1000 nM. In the case of `Cc1nc(Oc2cc(C#N)ccc2-c2ccc([C@H](O)CN)cn2)cc(-c2ncc(C)s2)n1` [compound 606, 4-[5-[(1S)-2-amino-1-hydroxyethyl]pyridin-2-yl]-3-[2-methyl-6-(5-methyl-1,3-thiazol-2-yl)pyrimidin-4-yl]oxybenzonitrile], the IC50 was 10 to 1000 nM.

Consider `Cc1cc(Oc2cc(C#N)ccc2-c2ccc(N3CC[C@H](N)C3=O)cn2)cc(N2CCOCC2)n1` [compound 565, 4-[5-[(3S)-3-amino-2-oxopyrrolidin-1-yl]pyridin-2-yl]-3-(2-methyl-6-morpholin-4-ylpyridin-4-yl)oxybenzonitrile], for which the IC50 is greater than 1000 nM. As for `CC(C)c1nc(Oc2cc(C#N)ccc2-c2ncc(CCN)cn2)n(C)n1` [compound 813, 4-[5-(2-aminoethyl)pyrimidin-2-yl]-3-[(2-methyl-5-propan-2-yl-1,2,4-triazol-3-yl)oxy]benzonitrile], the IC50 is greater than 1000 nM.

For the compound `Cc1nc(OCC(C)C)cc(Oc2cc(C#N)ccc2-n2cc([C@@H](O)CN)cn2)n1` [Compound 267, 4-[4-[(1R)-2-amino-1-hydroxyethyl]pyrazol-1-yl]-3-[2-methyl-6-(2-methylpropoxy)pyrimidin-4-yl]oxybenzonitrile], the IC50 was less than 10 nM. On to `CC(C)n1nc(C2CC2)cc1Oc1cc(C#N)ccc1-c1ccc([C@@H](O)CN)cn1` [compound 382, 4-[5-[(1R)-2-amino-1-hydroxyethyl]pyridin-2-yl]-3-(5-cyclopropyl-2-propan-2-ylpyrazol-3-yl)oxybenzonitrile], for which the IC50 was less than 10 nM. Under `Cn1nc(C2CC2)cc1Oc1cc(C#N)ccc1-c1ccc(CN)nn1` [compound 870, 4-[6-(aminomethyl)pyridazin-3-yl]-3-(5-cyclopropyl-2-methylpyrazol-3-yl)oxybenzonitrile] stands 10 to 1000 nM. To `Cn1nc(-c2cscn2)cc1Oc1cc(C#N)ccc1-c1ncc(CCN)cn1` [compound 952, 4-[5-(2-aminoethyl)pyrimidin-2-yl]-3-[2-methyl-5-(1,3-thiazol-4-yl)pyrazol-3-yl]oxybenzonitrile] belongs less than 10 nM. As for `Cn1nc(C2CC2)cc1Oc1cc(C#N)ccc1-c1cc(CN)ccn1` [compound 443, 4-[4-(aminomethyl)pyridin-2-yl]-3-(5-cyclopropyl-2-methylpyrazol-3-yl)oxybenzonitrile], the IC50 is 10 to 1000 nM. To `Cc1nc(Oc2cc(C#N)ccc2-c2ccc(C(CN)Oc3ccccc3)cc2)cc(N2CCOCC2)n1` (stereo not drawn) [Compound 13, 4-[4-(2-Amino-1-phenoxyethyl)phenyl]-3-(2-methyl-6-morpholin-4-ylpyrimidin-4-yl)oxybenzonitrile] belongs 10 to 1000 nM. For the compound `N#Cc1ccc(-n2cc(CCN)cn2)c(Oc2cnnc(N3CCCCC3)c2)c1` [Compound 283, 4-[4-(2-aminoethyl)pyrazol-1-yl]-3-(6-piperidin-1-ylpyridazin-4-yl)oxybenzonitrile], the IC50 is 10 to 1000 nM.

As to `Cn1nc(C2CC2)cc1Oc1cc(F)ccc1-c1ccc(CN)cn1` [compound 1016, [6-[2-(5-cyclopropyl-2-methylpyrazol-3-yl)oxy-4-fluorophenyl]pyridin-3 - yl]methanamine], the IC50 was 10 to 1000 nM. For `Cn1nc(-c2ncccn2)cc1Oc1cc(C#N)ccc1-c1ccc(CCN)cn1` [compound 512, 4-[5-(2-aminoethyl)pyridin-2-yl]-3-(2-methyl-5-pyrimidin-2-ylpyrazol-3-yl)oxybenzonitrile], the IC50 was 10 to 1000 nM.

As for `Cc1nc(OCC2(C)COC2)cc(Oc2cc(C#N)ccc2-c2ncc(CCN)cn2)n1` [compound 885, 4-[5-(2-aminoethyl)pyrimidin-2-yl]-3-[2-methyl-6-[(3-methyloxetan-3-yl)methoxy]pyrimidin-4-yl]oxybenzonitrile], the IC50 was greater than 1000 nM. Under `Cn1nc(C2CC2)cc1Oc1cc(C#N)ccc1-c1ncc(CN)cn1` [compound 325, 4-[5-(aminomethyl)pyrimidin-2-yl]-3-(5-cyclopropyl-2-methylpyrazol-3-yl)oxybenzonitrile] stands less than 10 nM.

Consider `CC(C)Cn1cc(Oc2cc(C#N)ccc2-c2ncc(CCN)cn2)cn1` [compound 907, 4-[5-(2-aminoethyl)pyrimidin-2-yl]-3-[1-(2-methylpropyl)pyrazol-4-yl]oxybenzonitrile], for which the IC50 was less than 10 nM. To `CN(c1cc(C#N)ccc1-c1ncc(CCN)cn1)c1cc(-c2ccccc2)nn1C` [Compound 6, 4-[5-(2-Aminoethyl)pyrimidin-2-yl]-3-[methyl-(2-methyl-5-phenylpyrazol-3-yl)amino]benzonitrile] belongs less than 10 nM; to `CC(C)(C)n1nc(C2CC2)cc1Oc1cc(C#N)ccc1-c1ncc(CCN)cn1` [compound 369, 4-[5-(2-aminoethyl)pyrimidin-2-yl]-3-(2-tert-butyl-5-cyclopropylpyrazol-3-yl)oxybenzonitrile], 10 to 1000 nM; to `N#Cc1ccc(-c2ncc(CN)cn2)c(Sc2cnnc(N3CCCCC3)c2)c1` [compound 1268, 4-[5-(aminomethyl)pyrimidin-2-yl]-3-(6-piperidin-1-ylpyridazin-4-yl)sulfanylbenzonitrile], 10 to 1000 nM.

Take `Cc1ccccc1-c1cc(Oc2cc(C#N)ccc2-c2ccc([C@@H](O)CN)cn2)n(C)n1` [compound 378, 4-[5-[(1R)-2-amino-1-hydroxyethyl]pyridin-2-yl]-3-[2-methyl-5-(2-methylphenyl)pyrazol-3-yl]oxybenzonitrile]: the IC50 was less than 10 nM. Under `Cc1nc(Oc2cc(C#N)ccc2-c2ccc(CCN)cc2)cc(-c2cccs2)n1` [Compound 33, 4-[4-(2-aminoethyl)phenyl]-3-(2-methyl-6-thiophen-2-ylpyrimidin-4-yl)oxybenzonitrile] stands less than 10 nM; under `Cc1nc(Oc2cc(C#N)ccc2-n2cc3c(n2)CCC(N)C3O)cc(-c2ccccc2)n1` (stereo not drawn) [Compound 193, 4-(5-amino-4-hydroxy-4,5,6,7-tetrahydroindazol-2-yl)-3-(2-methyl-6-phenylpyrimidin-4-yl)oxybenzonitrile], greater than 1000 nM; under `Cn1nc(C(F)(F)F)cc1Oc1cc(C#N)ccc1-n1cc(N2CCNCC2=O)cn1` [Compound 220, 3-[2-methyl-5-(trifluoromethyl)pyrazol-3-yl]oxy-4-[4-(2-oxopiperazin-1-yl)pyrazol-1-yl]benzonitrile], greater than 1000 nM.
